Test results: patent US20240376085A1 (Janssen Pharmaceutica NV, priority 2021, published 2024)

Key:
[1] = tested on: IL-17A-induced G-CSF production in human normal keratinocyte (NHK); test: NHK assay: IL-17A-induced G-CSF production in normal human keratinocytes; format: cell-based; details: 24 h, IL-17A 5 ng/mL, average if tested more than once
How it was run: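 Compound titrations are first mixed with recombinant human IL-17A for 1 h at room temperature. The mixture goes onto adult normal human keratinocytes (final IL-17A 5 ng/mL, 5% FBS, 0.2% DMSO) for 24 h at 37 °C. Secreted G-CSF is then measured by HTRF and IC50 fitted.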

IL-17A : IL-17RA binding = target: T1, IL-17A : IL-17RA binding (Homo sapiens, UniProt Q16552, K93Q); test: IL-17A(FLAG-tagged):IL-17RA(His-tagged) binding disruption Eu-HTRF assay, Protocol 1; details: FLAG-IL-17A 2.5 nM at 2x final concentration; average if tested more than once
T1 construct: Name: IL-17A-Flag
T1 sequence (Q16552 with tags, fused parts or gaps K93Q): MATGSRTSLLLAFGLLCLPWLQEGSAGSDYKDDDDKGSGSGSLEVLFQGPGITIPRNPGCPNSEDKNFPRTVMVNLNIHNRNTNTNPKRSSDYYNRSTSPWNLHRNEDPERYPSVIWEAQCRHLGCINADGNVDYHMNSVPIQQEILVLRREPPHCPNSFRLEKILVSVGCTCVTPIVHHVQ
How it was run: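 IC50 came from a one-site competition fit of the acceptor/donor (665/620 nm) HTRF ratio. His-tagged IL-17RA, Eu-anti-FLAG and D2-anti-His were added after a 1 h rt compound preincubation with FLAG-tagged IL-17A dimer in PBS/0.01% Triton X-100, followed by 2 h at rt before reading.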

| SMILES | IC50 (IL-17A : IL-17RA binding) | IC50 ([1]; Homo sapiens, Keratinocyte) | IC50 [1] |
| --- | --- | --- | --- |
| C[C@@H](NC(=O)CCC(F)(F)F)c1ccc2[nH]c([C@@H](NC(=O)c3cnn(C)c3CCC(F)(F)F)C3CCC(F)(F)CC3)nc2c1 [Example 6, N—[(S)-(4,4-Difluorocyclohexyl)-[6-[(1R)-1-(4,4,4-trifluorobutanoylamino)ethyl]-1H-benzimidazol-2-yl]methyl]-1-methyl-5-(3,3,3-trifluoropropyl)pyrazole-4-carboxamide] | > 100 nM | > 100 nM | – |
| CCn1ncc(C(=O)N[C@H](c2nc3cc([C@@H](C)NC(=O)CCC(F)(F)F)ccc3[nH]2)C2CCC(F)(F)CC2)n1 [Example 7, N—[(S)-(4,4-Difluorocyclohexyl)-[6-[(1R)-1-(4,4,4-trifluorobutanoylamino)ethyl]-1H-benzimidazol-2-yl]methyl]-2-ethyl-triazole-4-carboxamide] | > 100 nM | > 100 nM | – |
| C[C@@H](NC(=O)CCC(F)(F)F)c1ccc2[nH]c([C@@H](NC(=O)c3cnn(CC4CC4)n3)C3CCC(F)(F)CC3)nc2c1 [Example 8, 2-(Cyclopropylmethyl)-N—[(S)-(4,4-difluorocyclohexyl)-[6-[(1R)-1-(4,4,4-trifluorobutanoylamino)ethyl]-1H-benzimidazol-2-yl]methyl]triazole-4-carboxamide] | > 100 nM | > 100 nM | – |
| C[C@@H](NC(=O)CCC(F)(F)F)c1ccc2[nH]c([C@@H](NC(=O)c3cnnn3CC3CC3)C3CCC(F)(F)CC3)nc2c1 [Example 9, 3-(Cyclopropylmethyl)-N—[(S)-(4,4-difluorocyclohexyl)-[6-[(1R)-1-(4,4,4-trifluorobutanoylamino)ethyl]-1H-benzimidazol-2-yl]methyl]triazole-4-carboxamide] | > 100 nM | > 100 nM | – |
| C[C@@H](NC(=O)CCC(F)(F)F)c1ccc2[nH]c([C@@H](NC(=O)c3cn(CC4CC4)nn3)C3CCC(F)(F)CC3)nc2c1 [Example 10, 1-(Cyclopropylmethyl)-N—[(S)-(4,4-difluorocyclohexyl)-[6-[(1R)-1-(4,4,4-trifluorobutanoylamino)ethyl]-1H-benzimidazol-2-yl]methyl]triazole-4-carboxamide] | > 100 nM | > 100 nM | – |
| CC(C)CCn1ncc(C(=O)N[C@H](c2nc3cc([C@@H](C)NC(=O)CCC(F)(F)F)ccc3[nH]2)C2CCC(F)(F)CC2)c1C(C)C [Example 11, N—[(S)-(4,4-Difluorocyclohexyl)-[6-[(1R)-1-(4,4,4-trifluorobutanoylamino)ethyl]-1H-benzimidazol-2-yl]methyl]-1-isopentyl-5-isopropyl-pyrazole-4-carboxamide] | > 100 nM | > 100 nM | – |
| C[C@@H](NC(=O)CCC(F)(F)F)c1ccc2[nH]c([C@@H](NC(=O)c3cnnn3CCC3CC3)C3CCC(F)(F)CC3)nc2c1 [Example 13, 3-(2-Cyclopropylethyl)-N—[(S)-(4,4-difluorocyclohexyl)-[6-[(1R)-1-(4,4,4-trifluorobutanoylamino)ethyl]-1H-benzimidazol-2-yl]methyl]triazole-4-carboxamide] | > 100 nM | > 100 nM | – |
| COCCn1ncc(C(=O)N[C@H](c2nc3cc([C@@H](C)NC(=O)CCC(F)(F)F)ccc3[nH]2)C2CCC(F)(F)CC2)n1 [Example 14, N—[(S)-(4,4-Difluorocyclohexyl)-[6-[(1R)-1-(4,4,4-trifluorobutanoylamino)ethyl]-1H-benzimidazol-2-yl]methyl]-2-(2-methoxyethyl)triazole-4-carboxamide] | > 100 nM | > 100 nM | – |

The next lines start with results.

| IC50 (IL-17A : IL-17RA binding) | SMILES | IC50 ([1]; Homo sapiens, Keratinocyte) | IC50 [1] |
| --- | --- | --- | --- |
| 50 to 100 nM | Cc1nonc1C(=O)N[C@H](c1nc2cc([C@H](NC(=O)CC(C)C(F)(F)F)C3CC3)ccc2[nH]1)[C@@H]1CCCC(F)(F)C1 (single isomer, unassigned) [Example 258, N—((S)-(5-((R)-Cyclopropyl((R*)-4,4,4-trifluoro-3-methylbutanamido)methyl)-1H-benzo[d]imidazol-2-yl)((R)-3,3-difluorocyclohexyl)methyl)-4-methyl-1,2,5-oxadiazole-3-carboxamide] | 50 to 100 nM | – |
| 50 to 100 nM | Cc1nonc1C(=O)N[C@H](c1nc2cc([C@H](NC(=O)CC(C)C(F)(F)F)C3CC3)ccc2[nH]1)[C@@H]1CCCC(F)(F)C1 (single isomer, unassigned) [Example 259, N—((S)-(5-((R)-Cyclopropyl((S*)-4,4,4-trifluoro-3-methylbutanamido)methyl)-1H-benzo[d]imidazol-2-yl)((R)-3,3-difluorocyclohexyl)methyl)-4-methyl-1,2,5-oxadiazole-3-carboxamide] | – | 50 to 100 nM |
| > 100 nM | Cc1nonc1C(=O)N[C@H](c1nc2ccc([C@H](NC(=O)CC3CC(F)(F)C3)C3CC3)cc2[nH]1)C1CCC(F)(F)CO1 (single isomer, unassigned) [Example 260, N—((R)-(6-((R)-Cyclopropyl(2-(3,3-difluorocyclobutyl)acetamido)methyl)-1H-benzo[d]imidazol-2-yl)((S*)-5,5-difluorotetrahydro-2H-pyran-2-yl)methyl)-4-methyl-1,2,5-oxadiazole-3-carboxamide] | > 100 nM | – |
| > 100 nM | CC(C)n1nccc1C(=O)N[C@H](c1nc2ccc([C@H](NC(=O)CC3CC(F)(F)C3)C3CC3)cc2[nH]1)C1CCC(F)(F)CO1 (single isomer, unassigned) [Example 261, N—((R)-(6-((R)-Cyclopropyl(2-(3,3-difluorocyclobutyl)acetamido)methyl)-1H-benzo[d]imidazol-2-yl)((S*)-5,5-difluorotetrahydro-2H-pyran-2-yl)methyl)-1-isopropyl-1H-pyrazole-5-carboxamide] | 50 to 100 nM | – |
| > 100 nM | CC(C)n1nccc1C(=O)N[C@H](c1nc2ccc([C@H](NC(=O)CC3CC(F)(F)C3)C3CC3)cc2[nH]1)C1CCC(F)(F)CO1 (single isomer, unassigned) [Example 262, N—((R)-(6-((R)-Cyclopropyl(2-(3,3-difluorocyclobutyl)acetamido)methyl)-1H-benzo[d]imidazol-2-yl)((R*)-5,5-difluorotetrahydro-2H-pyran-2-yl)methyl)-1-isopropyl-1H-pyrazole-5-carboxamide] | – | < 50 nM |
| > 100 nM | Cc1c(C(=O)NC(CC(C)(C)C(F)(F)F)c2nc3cc([C@@H](C)NC(=O)CCC(F)(F)F)ccc3[nH]2)cnn1CC(F)(F)F (stereo in doubt) [Example 223, 5-Methyl-N—((S*)-4,4,4-trifluoro-3,3-dimethyl-1-(5-((R)-1-(4,4,4-trifluorobutanamido)ethyl)-1H-benzo[d]imidazol-2-yl)butyl)-1-(2,2,2-trifluoroethyl)-1H-pyrazole-4-carboxamide] | > 100 nM | – |
| > 100 nM | C[C@@H](NC(=O)CCC(F)(F)F)c1ccc2[nH]c([C@@H](NC(=O)c3cnn(CCC(F)(F)F)c3)C3CCC(F)(F)CC3)nc2c1 [Example 1, N—[(S)-(4,4-Difluorocyclohexyl)-[6-[(1R)-1-(4,4,4-trifluorobutanoylamino)ethyl]-1H-benzimidazol-2-yl]methyl]-1-(3,3,3-trifluoropropyl)pyrazole-4-carboxamide] | > 100 nM | – |
| > 100 nM | C[C@@H](NC(=O)CCC(F)(F)F)c1ccc2[nH]c([C@@H](NC(=O)c3ccn(CCC(F)(F)F)n3)C3CCC(F)(F)CC3)nc2c1 [Example 2, N—[(S)-(4,4-Difluorocyclohexyl)-[6-[(1R)-1-(4,4,4-trifluorobutanoylamino)ethyl]-1H-benzimidazol-2-yl]methyl]-1-(3,3,3-trifluoropropyl)pyrazole-3-carboxamide] | > 100 nM | – |
| > 100 nM | C[C@@H](NC(=O)CCC(F)(F)F)c1ccc2[nH]c([C@@H](NC(=O)c3cnn(CCC(F)(F)F)n3)C3CCC(F)(F)CC3)nc2c1 [Example 3, N—[(S)-(4,4-Difluorocyclohexyl)-[6-[(1R)-1-(4,4,4-trifluorobutanoylamino)ethyl]-1H-benzimidazol-2-yl]methyl]-2-(3,3,3-trifluoropropyl)triazole-4-carboxamide] | > 100 nM | – |
| > 100 nM | C[C@@H](NC(=O)CCC(F)(F)F)c1ccc2[nH]c([C@@H](NC(=O)c3cnnn3CCC(F)(F)F)C3CCC(F)(F)CC3)nc2c1 [Example 4, N—[(S)-(4,4-Difluorocyclohexyl)-[6-[(1R)-1-(4,4,4-trifluorobutanoylamino)ethyl]-1H-benzimidazol-2-yl]methyl]-3-(3,3,3-trifluoropropyl)triazole-4-carboxamide] | 50 to 100 nM | – |
| > 100 nM | Cc1c(C(=O)N[C@H](c2nc3cc([C@@H](C)NC(=O)CCC(F)(F)F)ccc3[nH]2)C2CCC(F)(F)CC2)cnn1CCC(F)(F)F [Example 5, N—[(S)-(4,4-Difluorocyclohexyl)-[6-[(1R)-1-(4,4,4-trifluorobutanoylamino)ethyl]-1H-benzimidazol-2-yl]methyl]-5-methyl-1-(3,3,3-trifluoropropyl)pyrazole-4-carboxamide] | > 100 nM | – |
| 50 to 100 nM | C[C@@H](NC(=O)CCC(F)(F)F)c1ccc2[nH]c([C@@H](NC(=O)c3cnn(CCC4CC4)n3)C3CCC(F)(F)CC3)nc2c1 [Example 12, 2-(2-Cyclopropylethyl)-N—[(S)-(4,4-difluorocyclohexyl)-[6-[(1R)-1-(4,4,4-trifluorobutanoylamino)ethyl]-1H-benzimidazol-2-yl]methyl]triazole-4-carboxamide] | > 100 nM | – |
